In ChEMBL document CHEMBL3045770, “Design and synthesis of some thieno[2,3-c]pyridazine derivatives of expected anticancer activity” (2013):

How the values were obtained:
Type in all cases: functional
OVCAR-4 = experiment: Cytotoxicity against Homo sapiens (human) OVCAR4 cells after 48 hr by SRB assay; conditions: OVCAR-4, 48 h
IGROV-1 = experiment: Cytotoxicity against Homo sapiens (human) IGROV1 cells after 48 hr by SRB assay; conditions: IGROV-1, 48 h
UACC-62 = experiment: Cytotoxicity against Homo sapiens (human) UACC62 cells after 48 hr by SRB assay; conditions: UACC-62, 48 h
UACC-257 = experiment: Cytotoxicity against Homo sapiens (human) UACC257 cells after 48 hr by SRB assay; conditions: UACC-257, 48 h
SK-MEL-5 = experiment: Cytotoxicity against Homo sapiens (human) SK-MEL-5 cells after 48 hr by SRB assay; conditions: SK-MEL-5, 48 h
SK-MEL-2 = experiment: Cytotoxicity against Homo sapiens (human) SK-MEL-2 cells after 48 hr by SRB assay; conditions: SK-MEL-2, 48 h
MDA-MB-435 = experiment: Cytotoxicity against Homo sapiens (human) MDA-MB-435 cells after 48 hr by SRB assay; conditions: MDA-MB-435, 48 h
LOX IMVI = experiment: Cytotoxicity against Homo sapiens (human) LOXIMVI cells after 48 hr by SRB assay
U-251 = experiment: Cytotoxicity against Homo sapiens (human) U251 cells after 48 hr by SRB assay; conditions: U-251, 48 h
SNB-19 = experiment: Cytotoxicity against Homo sapiens (human) SNB19 cells after 48 hr by SRB assay; conditions: SNB-19, 48 h
SF-295 = experiment: Cytotoxicity against Homo sapiens (human) SF295 cells after 48 hr by SRB assay; conditions: SF-295, 48 h
KM12 = experiment: Cytotoxicity against Homo sapiens (human) KM12 cells after 48 hr by SRB assay; conditions: KM12, 48 h
HT-29 = experiment: Cytotoxicity against Homo sapiens (human) HT-29 cells after 48 hr by SRB assay; conditions: HT-29, 48 h
HCT-116 = experiment: Cytotoxicity against Homo sapiens (human) HCT116 cells after 48 hr by SRB assay; conditions: HCT-116, 48 h
COLO 205 = experiment: Cytotoxicity against Homo sapiens (human) COLO205 cells after 48 hr by SRB assay; conditions: COLO 205, 48 h
NCI-H522 = experiment: Cytotoxicity against Homo sapiens (human) NCI-H522 cells after 48 hr by SRB assay; conditions: NCI-H522, 48 h
Hs-578T = experiment: Cytotoxicity against Homo sapiens (human) Hs 578T cells after 48 hr by SRB assay
MCF7 = experiment: Cytotoxicity against Homo sapiens (human) MCF7 cells after 48 hr by SRB assay; conditions: MCF7, 48 h
PC-3 = experiment: Cytotoxicity against Homo sapiens (human) PC3 cells after 48 hr by SRB assay; conditions: PC-3, 48 h
TK-10 = experiment: Cytotoxicity against Homo sapiens (human) TK10 cells after 48 hr by SRB assay; conditions: TK-10, 48 h
RXF 393 = experiment: Cytotoxicity against Homo sapiens (human) RXF393 cells after 48 hr by SRB assay; conditions: RXF 393, 48 h
CAKI-1 = experiment: Cytotoxicity against Homo sapiens (human) Caki1 cells after 48 hr by SRB assay; conditions: CAKI-1, 48 h
SK-OV-3 = experiment: Cytotoxicity against Homo sapiens (human) SKOV3 cells after 48 hr by SRB assay; conditions: SK-OV-3, 48 h
NCI-H322M = experiment: Cytotoxicity against Homo sapiens (human) NCI-H322M cells after 48 hr by SRB assay
NCI-H460 = experiment: Cytotoxicity against Homo sapiens (human) NCI-H460 cells after 48 hr by SRB assay; conditions: NCI-H460, 48 h
NCI-H23 = experiment: Cytotoxicity against Homo sapiens (human) NCI-H23 cells after 48 hr by SRB assay; conditions: NCI-H23, 48 h
HOP-92 = experiment: Cytotoxicity against Homo sapiens (human) HOP92 cells after 48 hr by SRB assay; conditions: HOP-92, 48 h
EKVX = experiment: Cytotoxicity against Homo sapiens (human) EKVX cells after 48 hr by SRB assay
A549 = experiment: Cytotoxicity against Homo sapiens (human) A549 cells after 48 hr by SRB assay; conditions: A549, 48 h
RPMI-8226 = experiment: Cytotoxicity against Homo sapiens (human) RPMI8226 cells after 48 hr by SRB assay; conditions: RPMI-8226, 48 h
SR = experiment: Cytotoxicity against Homo sapiens (human) SR cells after 48 hr by SRB assay
K562 = experiment: Cytotoxicity against Homo sapiens (human) K562 cells after 48 hr by SRB assay; conditions: K562, 48 h
CCRF-CEM = experiment: Cytotoxicity against Homo sapiens (human) CCRF-CEM cells after 48 hr by SRB assay
[1] = read-out: LC50 (the source's name)

SMILES: Oc1c(-c2nnc(-c3ccc(Cl)cc3)o2)sc2nnc(-c3ccccc3)c(-c3ccccc3)c12
- GI50 (OVCAR-4): 4.75 µM
- TGI (OVCAR-4): 18.3 µM
- CC50 (OVCAR-4; [1]): 0.0183 µM
- GI50 (IGROV-1): 3.66 µM
- TGI (IGROV-1): 6.35 µM
- CC50 (IGROV-1; [1]): 0.0183 µM
- GI50 (UACC-62): 3.77 µM
- TGI (UACC-62): 6.61 µM
- GI50 (UACC-257): 6.16 µM
- TGI (UACC-257): 15 µM
- CC50 (UACC-257; [1]): 0.0183 µM
- GI50 (SK-MEL-5): 5.41 µM
- TGI (SK-MEL-5): 9.1 µM
- CC50 (SK-MEL-5; [1]): 0.0136 µM
- GI50 (SK-MEL-2): 4.13 µM
- TGI (SK-MEL-2): 8.23 µM
- GI50 (MDA-MB-435): 4.65 µM
- TGI (MDA-MB-435): 18.3 µM
- GI50 (LOX IMVI): 3.73 µM
- TGI (LOX IMVI): 9.47 µM
- CC50 (LOX IMVI; [1]): 0.0183 µM
- GI50 (U-251): 3.55 µM
- TGI (U-251): 18.3 µM
- CC50 (U-251; [1]): 0.0183 µM
- GI50 (SNB-19): 4.7 µM
- TGI (SNB-19): 18.3 µM
- GI50 (SF-295): 3.28 µM
- TGI (SF-295): 8.15 µM
- GI50 (KM12): 4.7 µM
- TGI (KM12): 15 µM
- CC50 (KM12; [1]): 0.0183 µM
- GI50 (HT-29): 4.56 µM
- TGI (HT-29): 9.1 µM
- CC50 (HT-29; [1]): 0.0183 µM
- GI50 (HCT-116): 3.97 µM
- TGI (HCT-116): 7.16 µM
- GI50 (COLO 205): 4.7 µM
- TGI (COLO 205): 18.3 µM
- CC50 (COLO 205; [1]): 0.0183 µM
- GI50 (NCI-H522): 4.34 µM
- TGI (NCI-H522): 9.76 µM
- GI50 (Hs-578T): 4.43 µM
- TGI (Hs-578T): 18.3 µM
- GI50 (MCF7): 4.43 µM
- TGI (MCF7): 18.3 µM
- CC50 (MCF7; [1]): 0.0183 µM
- GI50 (PC-3): 4.09 µM
- TGI (PC-3): 18.3 µM
- CC50 (PC-3; [1]): 0.0183 µM
- GI50 (TK-10): 5.14 µM
- TGI (TK-10): 16.9 µM
- CC50 (TK-10; [1]): 0.0183 µM
- GI50 (RXF 393): 3.66 µM
- TGI (RXF 393): 18.3 µM
- GI50 (CAKI-1): 1.84 µM
- TGI (CAKI-1): 9.95 µM
- GI50 (SK-OV-3): 5.04 µM
- TGI (SK-OV-3): 18.3 µM
- CC50 (SK-OV-3; [1]): 0.0183 µM
- GI50 (NCI-H322M): 4.17 µM
- TGI (NCI-H322M): 10.6 µM
- CC50 (NCI-H322M; [1]): 0.0183 µM
- GI50 (NCI-H460): 3.15 µM
- TGI (NCI-H460): 8.07 µM
- CC50 (NCI-H460; [1]): 0.0183 µM
- GI50 (NCI-H23): 4.94 µM
- TGI (NCI-H23): 18.3 µM
- GI50 (HOP-92): 3.21 µM
- TGI (HOP-92): 6.74 µM
- CC50 (HOP-92; [1]): 0.0183 µM
- GI50 (EKVX): 4.05 µM
- TGI (EKVX): 11.2 µM
- CC50 (EKVX; [1]): 0.0183 µM
- GI50 (A549): 4.65 µM
- TGI (A549): 14.8 µM
- CC50 (A549; [1]): 0.0183 µM
- GI50 (RPMI-8226): 3.97 µM
- TGI (RPMI-8226): 18.3 µM
- CC50 (RPMI-8226; [1]): 0.0183 µM
- GI50 (SR): 4.52 µM
- TGI (SR): 18.3 µM
- GI50 (K562): 4.17 µM
- TGI (K562): 18.3 µM
- CC50 (K562; [1]): 0.0183 µM
- GI50 (CCRF-CEM): 2.88 µM
- TGI (CCRF-CEM): 18.3 µM
